These results are taken from patent US12246025B2, “Methods of treating cancer with a combination of a platinum-based agent and an anti-tissue factor antibody-drug conjugate” (priority 2018, dated 2025).

Series [1] concerns HuPrime® cervical xenograft model CV1248 [P3]. The series can be described thus: Anti-tumor efficacy of tisotumab vedotin with carboplatin in cervical cancer PDX mouse model. The settings on record: alone; tisotumab vedotin 2 mg/kg, carboplatin 40 or 80 mg/kg; FIGS. 3A and 3B. The class given is in vivo, BALB/c nude mice. On the procedure:
The in vivo anti-tumor efficacy of tisotumab vedotin in combination with carboplatin was evaluated in a patient-derived xenograft (PDX) mouse model in female BALB/c nude mice (Crown Bioscience [Taicang] Inc.). Xenografts were derived from tumor specimens from cancer patients. Tumor fragments were obtained from xenografts in serial passage in nude mice. Tumors were cut into fragments of 2-4 mm diameter and placed in phosphate-buffered saline (PBS) until subcutaneous implantation. A cervical cancer PDX model (HuPrime® cervical xenograft model CV1248 [P3]; Crown Bioscience Inc.) was used in this experiment. Tumor size was determined by caliper measurement at least two times a week and tumor volume was calculated as 0.5×length× width^2. When tumors reached an average volume of 150 mm^3, mice were randomized in 7 groups (10 mice per treatment group). The day of randomization was designated day 0. Mice were treated with the following by intravenous injections: 1) tisotumab vedotin alone at a dose level of 2 mg/kg, provided on day 0, day 7 and day 14; 2) carboplatin (Selleck Chemicals, cat. no. […]

In series [2] the test system is HuPrime® cervical xenograft model CV1248 [R4P5]. The series can be described thus: Anti-tumor efficacy of tisotumab vedotin with cisplatin in cervical cancer PDX mouse model. The class given is in vivo, BALB/c nude mice. To be noted: alone, tisotumab vedotin 2 mg/kg and 4 mg/kg, cisplatin 4 mg/kg; for tumor growth: FIG. 1A-C; for survival: tumor size cut-off 1000 mm^3, FIGS. 1D and 1E. How it is done: The in vivo anti-tumor efficacy of tisotumab vedotin in combination with cisplatin was evaluated in a patient-derived xenograft (PDX) mouse model in BALB/c nude mice (Crown Bioscience Inc.). Xenografts were derived from tumor specimens from cancer patients. Establishment and characterization of the PDX model was performed following primary implantation into nude mice. Tumor xenografts were passaged approximately three to five times until establishment of stable growth patterns. Tumor fragments were obtained from xenografts in serial passage in nude mice. Tumors were cut into fragments of 2-3 mm diameter and placed in phosphate-buffered saline (PBS) until subcutaneous implantation. A cervical cancer PDX model (HuPrime® cervical xenograft model CV1248 [R4P5]; Crown Bioscience Inc.) was used in this experiment. Tumor size was determined by caliper measurement at least two times a week and tumor volume was calculated as 0.5×length×width^2. When tumors reached the volume of 200 mm^3, mice were randomized in 11 groups (7-8 mice per treatment group). Mice were treated with the following by intravenous injections: 1) tisotumab vedotin alone at a dose level of 0.5 mg/kg, 1 mg/kg, 2 mg/kg or 4 mg/kg provided on day 0 and day 7 of treatment; 2) cisplatin alone at a dose of 4 mg/kg provided on day 0, day 7 and day 14 of treatment; 3) tisotumab vedotin at a dose level of 0.5 mg/kg, 1 mg/kg, 2 mg/kg or 4 mg/kg provided on day 0 and day 7 of treatment in combination with cisplatin at a dose of 4 mg/kg provided on day 0, day 7 and day 14 of treatment; 4) IgG1 isotype control at a dose of 4 mg/kg provided on day 0 and day 7 of treatment; or 5) IgG1-MMAE control at a dose of 4 mg/kg provided on day 0 and day 7 of treatment. […] Mice were housed in individually ventilated (IVC) cages, four or five mice per cage and identified by ear tags.
To determine whether there were statistically significant differences between tumor volumes in control and treatment groups, tumor volumes in the treatment groups were compared with those in the control group (e.g., treatment groups vs IgG1-MMAE control) using Mann-Whitney analysis at the last day that all groups were intact, i.e., day 38. For survival analysis (tumor volume cut-off was 1,000 mm^3). Mantel-Cox analysis was performed on Kaplan-Meier plots with a cut-off set at tumor volume >1,000 mm^3.

For series [3], the system named is bladder xenograft model BXF1036. The series can be described thus: Anti-tumor efficacy of tisotumab vedotin with cisplatin in bladder cancer PDX mouse model. The class given is in vivo, Crl:NMRI-Foxn1^nu nude mice. To be noted: alone; for tumor growth: tisotumab vedotin 0.5 mg/kg, cisplatin 2 mg/kg, FIG. 2A-C; for survival: tumor size cut-off 500 mm^3, FIG. 2D. On the procedure: The in vivo anti-tumor efficacy of tisotumab vedotin in combination with cisplatin was evaluated in a PDX mouse model in female Crl:NMRI-Foxn1^nu (Envigo RMS SARL, France) nude mice (Charles River Discovery Research Services). Xenografts were derived from tumor specimens from cancer patients. Establishment and characterization of the PDX model was performed following primary implantation into nude mice. Tumor xenografts were passaged approximately three to five times until establishment of stable growth patterns. Tumor fragments were obtained from xenografts in serial passage in nude mice. Tumors were cut into fragments of 3-4 mm diameter and placed in phosphate-buffered saline (PBS) until subcutaneous implantation. A bladder cancer PDX model (bladder xenograft model BXF1036; Charles River Discovery Research Services) was used in this experiment. Tumor size was determined by caliper measurement at least two times a week and tumor volume was calculated as 0.52×length×[…]. When tumors reached the volume of 50-250 mm^3, mice were randomized in 5 groups (10 mice per treatment group). Mice were treated with the following: 1) tisotumab vedotin alone at a dose level of 0.5 mg/kg provided on day 1 of treatment; 2) cisplatin alone at a dose of 2 mg/kg provided on day 1 and day 8 of treatment; 3) tisotumab vedotin at a dose level of 0.5 mg/kg provided on day 1 of treatment in combination with cisplatin at a dose of 2 mg/kg provided on day 1 and day 8 of treatment; 4) IgG1 isotype control at a dose of 0.5 mg/kg provided on day 1 of treatment; or 5) IgG1-MMAE control at a dose of 0.5 mg/kg provided on day 1 of treatment. IgG1 isotype control, IgG1-MMAE control and tisotumab vedotin were each in PBS and injected intravenously. Cisplatin was in 0.9% NaCl and injected subcutaneously. […] Mice were housed in individually ventilated (IVC) cages, with a maximum of five mice per cage, and identified by ear tags.
To determine whether there were statistically significant differences between tumor volumes in control and treatment groups, tumor volumes in the treatment groups were compared with those in the control groups (e.g., IgG1-MMAE control, tisotumab vedotin alone or cisplatin alone) using Mann-Whitney analysis at the last day that all groups were intact, i.e., day 25. Statistical analysis of the difference between groups treated with tisotumab vedotin in combination with cisplatin and groups treated with either tisotumab vedotin alone or cisplatin alone was performed on day 32.
Tumor progression was plotted in a Kaplan-Meier plot, with a cut-off set at a tumor volume >500 mm^3. […]

Series [4] has as its system relapsed, recurrent, and/or metastatic cervical cancer. The settings on record: cited from earlier work.

Take `N.N.O=C([O-])C1(C(=O)[O-])CCC1.[Pt+2]` [Carboplatin, reference compound]: the tumor growth entry in series [1] was “did not inhibit tumor growth”.
As for `N.N.[Cl][Pt][Cl]` [Cisplatin, reference compound], in series [2], the tumor growth result is listed as “inhibited tumor growth” and the survival entry is listed as “prolonged survival”. Moreover, in series [3], the tumor growth result is reported as “inhibited tumor growth” and the survival entry is recorded as “prolonged survival”.
For “Tisotumab vedotin: antibody-drug conjugate comprising an antibody that binds to tissue factor (TF), a protease-cleavable linker, and the microtubule disrupting agent MMAE”, in series [4] (2.0 mg/kg), the efficacy result is “robust efficacy”. In addition, the safety profile entry in series [4] (2.0 mg/kg) was “manageable safety profile”. The “grade of reported peripheral neuropathy cases” value in series [4] (in vivo) is listed as “majority of the reported cases are grade 1-2”. Besides, the “Epistaxis (bleeding AE)” value in series [4] (nearly all of the cases are grade 1) is “most common reported AE”. The “subjects with peripheral neuropathy” value in series [4] (subjects who received treatment with tisotumab vedotin) was “approximately 35%”. Besides, the tumor growth entry in series [2], in series [3] and in series [1] was “efficiently inhibited tumor growth” in each case. Besides, the survival result in series [2] and in series [3] was “prolonged survival” each time.
